The values below come from patent publication US11053248B2, “[1,2,4]triazolo[1,5-a]pyrimidine compounds as PDE2 inhibitors” (Janssen Pharmaceutica NV, priority 2016, dated 2021).

Structures are written as SMILES.

One data set has as its target T1, hPDE2A (Homo sapiens, UniProt O00408).
T1 construct: made in house; host or cells: Sf9 insect cells (baculovirus)
The experiment in a line: In vitro assay PDE2A (SPA, 3H-cGMP). The format is biochemical. The method in brief: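 Sf9-expressed, Ni-sepharose-purified enzyme in 50 mM Tris pH 7.8, 8.3 mM MgCl2, 1.7 mM EGTA with 10 μM cGMP plus 0.01 μCi 3H-cGMP (final), 1% DMSO. Reaction 45 min at room temperature; SPA bead radioactivity counted as cpm, blanks without enzyme, controls with DMSO instead of compound.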

The target in the next data set is T2, PDE2A (Rattus norvegicus, UniProt Q01062).
T2 construct: from tissue; host or cells: rat brain striatal sections (ex vivo)
T2 sequence (Q01062 1-928): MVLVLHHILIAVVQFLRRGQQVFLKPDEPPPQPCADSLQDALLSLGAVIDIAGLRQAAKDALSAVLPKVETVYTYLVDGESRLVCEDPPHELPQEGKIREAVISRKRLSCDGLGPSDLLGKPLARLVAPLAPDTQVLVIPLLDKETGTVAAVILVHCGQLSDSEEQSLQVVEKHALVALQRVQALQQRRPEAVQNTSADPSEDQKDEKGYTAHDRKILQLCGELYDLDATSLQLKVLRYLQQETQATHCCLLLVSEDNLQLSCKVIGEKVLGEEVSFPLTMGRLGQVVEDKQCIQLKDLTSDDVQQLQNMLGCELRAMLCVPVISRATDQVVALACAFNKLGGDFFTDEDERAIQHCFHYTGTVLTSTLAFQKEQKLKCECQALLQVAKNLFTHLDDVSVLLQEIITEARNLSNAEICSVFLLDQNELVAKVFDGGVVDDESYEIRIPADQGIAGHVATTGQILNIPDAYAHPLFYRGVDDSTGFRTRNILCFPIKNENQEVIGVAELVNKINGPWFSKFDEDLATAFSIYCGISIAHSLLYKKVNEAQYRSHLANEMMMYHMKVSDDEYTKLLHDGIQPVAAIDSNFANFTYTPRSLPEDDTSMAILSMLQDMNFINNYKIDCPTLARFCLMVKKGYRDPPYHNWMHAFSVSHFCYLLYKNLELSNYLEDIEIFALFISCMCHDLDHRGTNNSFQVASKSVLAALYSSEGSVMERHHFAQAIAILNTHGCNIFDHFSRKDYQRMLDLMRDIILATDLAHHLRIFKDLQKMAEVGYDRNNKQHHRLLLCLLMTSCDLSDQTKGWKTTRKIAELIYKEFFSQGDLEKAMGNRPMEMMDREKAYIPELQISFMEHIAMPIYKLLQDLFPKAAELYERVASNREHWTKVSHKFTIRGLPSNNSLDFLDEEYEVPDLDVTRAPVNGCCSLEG
In words: PDE2 occupancy by ex-vivo autoradiography with [3H]B-17a. The data set is classed as in vivo. The following applies: rat. How it is done: PDE2 Occupancy by Test Compounds Methods
Brains were immediately removed from the skull and rapidly frozen in dry-ice cooled 2-methylbutane (−40° C.).
After thawing, sections were dried under a cold stream of air and incubated for one minute with 30 nM [^3H]B-17a in Tris-HCl (50 mM, pH7.4) containing 0.3% BSA. Brain sections from drug-treated and vehicle-treated animals were incubated in parallel. […] After incubation, the excess of [^3H]B-17a was washed off in ice-cold buffer 2 times 10 minutes, followed by a quick dip in distilled water. The sections were then dried under a stream of cold air.
Brain sections were loaded in a β-imager (Biospace, Paris) for 4 h and radioactivity emerging from delineated brain area was quantified using the Beta vision program (Biospace, Paris). Specific binding was determined as the difference between total binding in the striatum and non-specific binding in the cerebellum. Percentage receptor occupancy of the drug administered to the animal corresponded to 100% minus the percentage receptor labeled in the treated animal. For the determination of ED50-values, the percentage of receptor occupancy was plotted against dose and the sigmoidal log dose-effect curve of best fit was calculated by non-linear regression analysis, using the GraphPad Prism program.

In another data set the test system is hPDE3B. In words: In vitro assay PDE3 (SPA, 3H-cAMP). The format is biochemical, human.

T1 sequence (O00408 whole entry): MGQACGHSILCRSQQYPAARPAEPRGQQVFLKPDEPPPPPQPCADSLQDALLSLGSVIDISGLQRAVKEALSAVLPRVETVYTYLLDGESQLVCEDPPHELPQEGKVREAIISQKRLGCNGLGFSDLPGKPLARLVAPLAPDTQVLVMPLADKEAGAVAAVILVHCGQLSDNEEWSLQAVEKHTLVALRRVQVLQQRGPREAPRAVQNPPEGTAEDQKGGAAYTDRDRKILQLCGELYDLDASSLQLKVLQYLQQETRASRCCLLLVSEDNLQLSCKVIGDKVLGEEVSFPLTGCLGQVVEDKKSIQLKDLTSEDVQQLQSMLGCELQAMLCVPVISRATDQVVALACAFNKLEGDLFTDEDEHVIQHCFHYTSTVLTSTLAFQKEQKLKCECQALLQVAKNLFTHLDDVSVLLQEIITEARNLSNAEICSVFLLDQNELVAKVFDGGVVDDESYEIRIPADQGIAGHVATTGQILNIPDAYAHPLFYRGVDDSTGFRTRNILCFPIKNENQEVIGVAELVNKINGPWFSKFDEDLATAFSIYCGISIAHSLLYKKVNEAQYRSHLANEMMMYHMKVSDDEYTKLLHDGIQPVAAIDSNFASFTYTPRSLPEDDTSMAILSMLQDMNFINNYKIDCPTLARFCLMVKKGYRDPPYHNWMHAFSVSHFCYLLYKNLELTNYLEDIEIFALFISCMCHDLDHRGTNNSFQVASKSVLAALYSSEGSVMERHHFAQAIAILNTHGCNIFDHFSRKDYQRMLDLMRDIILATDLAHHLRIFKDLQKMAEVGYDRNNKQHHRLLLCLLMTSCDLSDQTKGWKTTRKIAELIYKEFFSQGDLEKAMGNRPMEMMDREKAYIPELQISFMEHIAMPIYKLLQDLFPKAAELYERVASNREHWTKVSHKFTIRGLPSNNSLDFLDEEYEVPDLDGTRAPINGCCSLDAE

Take `C[C@@H]1CCN(c2nccc3ccc(Br)cc23)C[C@H]1c1cc(C(F)F)nc2ncnn12` [Compound 1]: the melting point was determined as 129.91 °C. Also, the IC50 on hPDE2A (10 μM cGMP substrate, read-out: hPDE2A pIC50 (converted)) was 2.24 nM. In addition, the Emax on hPDE2A (read-out: hPDE2A Emax) came to 96%. Moreover, at PDE2A (po, read-out: PDE2 occupancy at 10 mg/kg, route PO (oral), 10 mg/kg, male Wistar rats, striatum, percentage occupancy), the receptor occupancy at 10 mg/kg stood at 94%. Further, the ED50 at PDE2A (sc, read-out: PDE occupancy ED50, route SC (subcutaneous), male Wistar rats, dose producing 50% occupancy) is 6.7 mg/kg. For the same compound, the “hPDE3B Emax” value with hPDE3B stood at 73. Moreover, the “hPDE3B pIC50” value in the data set with hPDE3B (0.4 μM cAMP substrate) turned out to be 5.25.

A word on the Emax: it is the greatest response seen or fitted, relative to the assay's reference. Broadly, the ED50 is the dose at which the effect has come halfway, by size or by number of responders. By melting point is commonly meant the temperature, or range, at which the solid turns liquid.
